Experimental findings from patent publication US11242361B2 (Proteostasis Therapeutics, Inc., priority 2013, dated 2022) are described below.

The assay has as its target USP14 (Homo sapiens (Human), UniProt P54578). The assay can be described thus: USP14 Inhibition Assay. The assay is classed as biochemical. Conditions: average value from a minimum of two experimental determinations, read-out: IC50 Category. On the procedure: Example 17: USP14 Inhibition Assay
“I” in the Table below designates an IC50 of >5 μM, “II” in the Table below designates and IC50 between 0.5 and 5 μM, and “III” designates an IC50<0.5 μM. The IC50 values in the Table below represent the average value from a minimum of two experimental determinations.

Chain of USP14 (P54578 whole entry, looked up): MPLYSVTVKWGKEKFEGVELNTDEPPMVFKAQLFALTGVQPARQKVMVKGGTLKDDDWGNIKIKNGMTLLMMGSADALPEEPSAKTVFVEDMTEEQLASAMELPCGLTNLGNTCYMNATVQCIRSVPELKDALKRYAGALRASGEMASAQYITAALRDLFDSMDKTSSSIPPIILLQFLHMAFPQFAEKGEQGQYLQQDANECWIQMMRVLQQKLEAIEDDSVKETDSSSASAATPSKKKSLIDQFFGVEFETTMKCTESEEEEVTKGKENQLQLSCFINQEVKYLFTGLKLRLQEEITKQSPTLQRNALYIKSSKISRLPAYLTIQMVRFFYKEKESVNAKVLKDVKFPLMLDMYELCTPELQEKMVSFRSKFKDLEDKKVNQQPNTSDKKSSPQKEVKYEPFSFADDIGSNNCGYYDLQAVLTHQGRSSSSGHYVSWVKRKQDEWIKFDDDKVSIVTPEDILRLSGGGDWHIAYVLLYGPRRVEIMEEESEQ

On to “4-(2-Methyl-3-(2-(piperidin-1-yl)acetyl)-1H-indol-1-yl)benzonitrile [Compound 160]”, for which the IC50 is below 0.5 µM. With `O=C(CN1CCC(O)CC1)c1cn(-c2ccc(Cl)cc2)c2ccccc12` [Compound 30] the figure was above 5 µM; with `O=C(CN1CCCCC1)c1cn(-c2ccc(Cl)cc2)c2ccccc12` [Compound 31], above 5 µM. `O=C(CN1CCCC1)c1cn(-c2ccc(Cl)cc2)c2ccccc12` [Compound 34]: the IC50 was above 5 µM. Regarding `Cc1c(C(=O)CN2CCC(O)CC2)c2ccccc2n1-c1ccc(Cl)cc1` [Compound 86], the IC50 is below 0.5 µM. With `Cc1c(C(=O)CN2CCCCC2)c2ccccc2n1-c1ccc(Cl)cc1` [Compound 87] the figure was below 0.5 µM; with `Cc1c(C(=O)CN2CCCC2)c2ccccc2n1-c1ccc(Cl)cc1` [Compound 88], below 0.5 µM; with `Cc1c(C(=O)CN2CCCCC2)c2cc(F)ccc2n1-c1ccc(Cl)cc1` [Compound 98], below 0.5 µM. For the compound `Cc1c(C(O)CN2CCCCC2)c2ccccc2n1-c1ccc(Cl)cc1` (stereo not shown) [Compound 106, 1-(1-(4-Chlorophenyl)-2-methyl-1H-indol-3-yl)-2-(piperidin-1-yl)ethan-1-ol], the concentration for half-maximal inhibition (IC50) was above 5 µM. As for `Cc1c(C(=O)CN2CCCCC2)c2ccccc2n1-c1ccc(C(N)=O)cc1` [Compound 108], the IC50 was above 5 µM.

For the compound `O=C(CN1CCCCC1)c1cn(-c2ccc(Cl)cc2)c2cc(CO)ccc12` [Compound 115, 1-(1-(4-Chlorophenyl)-6-(hydroxymethyl)-1H-indol-3-yl)-2-(piperidin-1-yl)ethan-1-one], the IC50 is above 5 µM. In the case of `Cc1c(C(=O)CC2CCCCC2)c2ncccc2n1-c1ccc(C#N)cc1` [Compound 116], the IC50 is above 5 µM. For `CC(=O)OCc1ccc2c(C(=O)CN3CCCCC3)cn(-c3ccc(Cl)cc3)c2c1` [Compound 118, (1-(4-Chlorophenyl)-3-(2-(piperidin-1-yl)acetyl)-1H-indol-6-yl)methyl Acetate] the value was above 5 µM; for `CNCc1ccc2c(C(=O)CN3CCCCC3)cn(-c3ccc(Cl)cc3)c2c1` [Compound 119, 1-(1-(4-Chlorophenyl)-6-((methylamino)methyl)-1H-indol-3-yl)-2-(piperidin-1-yl)ethan-1-one], above 5 µM; for `O=C(CN1CCCCC1)c1cn(-c2ccc(Cl)cc2)c2cc(O)ccc12` [Compound 120], above 5 µM. With `COC(=O)c1ccc2c(C(O)CN3CCCCC3)c(C)n(-c3ccc(Cl)cc3)c2c1` (stereo not shown) [Compound 126, Methyl 1-(4-Chlorophenyl)-3-(1-hydroxy-2-(piperidin-1-yl)ethyl)-2-methyl-1H-indole-6-carboxylate] the figure was above 5 µM; with `Cc1c(C(=O)CN2CCCCC2)c2nc(O)ccc2n1-c1ccc(C#N)cc1` [Compound 127, 4-(5-Hydroxy-2-methyl-3-(2-(piperidin-1-yl)acetyl)-1H-pyrrolo[3,2-b]pyridin-1-yl)benzonitrile], above 5 µM; with `Cc1[nH]c2cccnc2c1C(=O)CN1CCCCC1` [Compound 128, 1-(2-Methyl-1H-pyrrolo[3,2-b]pyridin-3-yl)-2-(piperidin-1-yl)ethan-1-one], above 5 µM. On to `Cc1c(C(O)CN2CCCCC2)c2ccc(CO)cc2n1-c1ccc(Cl)cc1` (stereo not shown) [Compound 130, 1-(1-(4-Chlorophenyl)-6-(hydroxymethyl)-2-methyl-1H-indol-3-yl)-2-(piperidin-1-yl)ethan-1-ol], for which the IC50 is above 5 µM. With `O=C(CN1CCCCC1)c1c(O)n(-c2ccc(Cl)cc2)c2ccccc12` [Compound 131, 1-(1-(4-Chlorophenyl)-2-hydroxy-1H-indol-3-yl)-2-(piperidin-1-yl)ethan-1-one] the figure was above 5 µM. Turning to `COc1c(C(=O)CN2CCCCC2)c2ccccc2n1-c1ccc(Cl)cc1` [Compound 132, 1-(1-(4-Chlorophenyl)-2-methoxy-1H-indol-3-yl)-2-(piperidin-1-yl)ethan-1-one], the IC50 was above 5 µM. With `CCOC(=O)CCc1ccc2c(C(=O)CN3CCCCC3)c(C)n(-c3ccc(C#N)cc3)c2c1` [Compound 133, Ethyl 3-(1-(4-Cyanophenyl)-2-methyl-3-(2-(piperidin-1-yl)acetyl)-1H-indol-6-yl)propanoate] the figure was below 0.5 µM; with `Cc1c(C(=O)CN2CCCCC2)c2cccnc2n1-c1ccc(C#N)cc1` [Compound 141, 4-(2-Methyl-3-(2-(piperidin-1-yl)acetyl)-1H-pyrrolo[2,3-b]pyridin-1-yl)benzonitrile], 0.5 to 5 µM. As for `Cc1c(C(=O)CN2CCC(NC(=O)OC(C)(C)C)CC2)c2ccccc2n1-c1ccc(Cl)cc1` [Compound 142], the concentration for half-maximal inhibition (IC50) is 0.5 to 5 µM.

For the compound `Cc1c(C(=O)CN2CCCCC2)c2ccncc2n1-c1ccc(C#N)cc1` [Compound 144, 4-(2-Methyl-3-(2-(piperidin-1-yl)acetyl)-1H-pyrrolo[2,3-c]pyridin-1-yl)benzonitrile], the IC50 lay in the range of 0.5 to 5 µM.

For `Cc1c(C(=O)CN2CCCCC2)c2cc(Oc3ccccc3)ccc2n1-c1ccc(Cl)cc1` [Compound 145], the IC50 lay in the range of 0.5 to 5 µM.

For the compound `COc1cccc2c(C(=O)CN3CCCCC3)c(C)n(-c3ccc(C#N)cc3)c12` [Compound 146], the half-maximal inhibitory concentration (IC50) lay within 0.5 to 5 µM. `Cc1c(C(=O)CN2CCC(NC(=O)c3ccc(N=[N+]=[N-])cc3)CC2)c2ccccc2n1-c1ccc(Cl)cc1` [Compound 147]: the IC50 was 0.5 to 5 µM. With `Cc1c(C(=O)CN2CCCCC2)c2ccc(O)cc2n1-c1ccc(Cl)cc1` [Compound 148, 1-(1-(4-Chlorophenyl)-6-hydroxy-2-methyl-1H-indol-3-yl)-2-(piperidin-1-yl)ethan-1-one], the IC50 was in the range of 0.5 to 5 µM.

`Cc1c(C(=O)CN2CCCCC2)c2ncccc2n1-c1ccc(Cl)nc1` [Compound 149]: the IC50 lay within 0.5 to 5 µM. In the case of `Cc1c(C(=O)CN2CCCCC2)c2cc([N+](=O)[O-])ccc2n1-c1ccc(Cl)cc1` [Compound 150], the IC50 fell in the range of 0.5 to 5 µM.

Regarding `Cc1c(C(=O)CN2CCCCC2)c2cnccc2n1-c1ccc(C#N)cc1` [Compound 151, 4-(2-Methyl-3-(2-(piperidin-1-yl)acetyl)-1H-pyrrolo[3,2-c]pyridin-1-yl)benzonitrile], the IC50 was in the range of 0.5 to 5 µM. Regarding `Cc1c(C(=O)CN2CCCCC2)c2ccc(CN3C(=O)c4ccccc4C3=O)cc2n1-c1ccc(Cl)cc1` [Compound 152, 2-((1-(4-Chlorophenyl)-2-methyl-3-(2-(piperidin-1-yl)acetyl)-1H-indol-6-yl)methyl)isoindoline-1,3-dione], the IC50 fell in the range of 0.5 to 5 µM. With `Cc1c(C(=O)CN2CCCCC2)c2ccc(CO[Si](C)(C)C(C)(C)C)cc2n1-c1ccc(Cl)cc1` [Compound 153, 1-(6-(((tert-Butyldimethylsilyl)oxy)methyl)-1-(4-chlorophenyl)-2-methyl-1H-indol-3-yl)-2-(piperidin-1-yl)ethan-1-one] the figure was 0.5 to 5 µM. For `COc1ccc2c(c1)c(C(=O)CN1CCCCC1)c(C)n2-c1ccc(Cl)cc1` [Compound 155], the IC50 is below 0.5 µM. Take `Cc1ccc2c(c1)c(C(=O)CN1CCCCC1)c(C)n2-c1ccc(Cl)cc1` [Compound 156]: the IC50 is below 0.5 µM.

Consider `Cc1c(C(=O)CN2CCCCC2)c2ncccc2n1-c1ccc(Cl)cc1` [Compound 161], for which the IC50 was below 0.5 µM.

One may read the IC50 as the concentration that inhibits the measured activity by half.
